In patent US11242350B2, “Spirocyclic ROR-gamma modulators” (Escalier Biosciences B.V., priority 2018, dated 2022):

Target: RORγt (Homo sapiens (Human), UniProt P51449)
Assay: Gal4 ligand binding assay (RORγt Gal fusion luciferase reporter assay in HEK293T cells)
Type: cell-based
Conditions: RORγt inverse agonists in RORγt Gal fusion assay
How it was run: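 Stable HEK293T line expressing the receptor fused to the Gal4 DBD, with a Gal4 UAS-driven luciferase; constitutively active, so agonism and inverse agonism both register. 10-point 1:3 titrations, 60 μM to 3 nM as prepared in media (added as 2×), 0.2% final DMSO; 24 h at 37 °C. Luminescence normalised to vehicle-only wells.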

Chain of RORγt (P51449 269-508): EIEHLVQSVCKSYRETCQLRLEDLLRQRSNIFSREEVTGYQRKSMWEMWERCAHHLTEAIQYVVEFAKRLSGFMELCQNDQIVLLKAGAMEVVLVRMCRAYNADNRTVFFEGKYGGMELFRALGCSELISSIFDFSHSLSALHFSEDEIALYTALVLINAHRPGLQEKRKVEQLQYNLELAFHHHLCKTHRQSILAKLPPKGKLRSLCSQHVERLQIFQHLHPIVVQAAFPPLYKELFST

IC50, < 50 nM:
CCc1cc(CN2CC3(C2)CN(S(C)(=O)=O)C3)c(F)cc1-c1ccc(C(O)(C(F)(F)F)C(F)(F)F)cc1Cl [Example 83, 2-(2-chloro-2′-ethyl-5′-fluoro-4′-((6-(methylsulfonyl)-2,6-diazaspiro[3.3]heptan-2-yl)methyl)-[1,1′-biphenyl]-4-yl)-1,1,1,3,3,3-hexafluoropropan-2-ol]
Cc1cc(C(O)(C(F)(F)F)C(F)(F)F)ccc1-c1c(F)cc(CN2CC3(C2)CN(S(C)(=O)=O)C3)c(F)c1C(C)C [Example 84, 2-(3′,6′-difluoro-2′-isopropyl-2-methyl-4′-((6-(methylsulfonyl)-2,6-diazaspiro[3.3]heptan-2-yl)methyl)-[1,1′-biphenyl]-4-yl)-1,1,1,3,3,3-hexafluoropropan-2-ol]
CCc1cc(C(O)(C(F)(F)F)C(F)(F)F)ccc1-c1c(F)cc(CN2CC3(C2)CN(S(C)(=O)=O)C3)c(F)c1C(C)C [Example 85, 2-(2-ethyl-3′,6′-difluoro-2′-isopropyl-4′-((6-(methylsulfonyl)-2,6-diazaspiro[3.3]heptan-2-yl)methyl)-[1,1′-biphenyl]-4-yl)-1,1,1,3,3,3-hexafluoropropan-2-ol]
CC(C)c1c(F)c(CN2CC3(C2)CN(S(C)(=O)=O)C3)cc(F)c1-c1ccc(C(O)(C(F)(F)F)C(F)(F)F)cc1F [Example 86, 1,1,1,3,3,3-hexafluoro-2-(2,3′,6′-trifluoro-2′-isopropyl-4′-((6-(methylsulfonyl)-2,6-diazaspiro[3.3]heptan-2-yl)methyl)-[1,1′-biphenyl]-4-yl)propan-2-ol]
CC(C)c1c(F)c(CN2CC3(C2)CN(S(C)(=O)=O)C3)cc(F)c1-c1ccc(C(O)(C(F)(F)F)C(F)(F)F)cc1Cl [Example 87, 2-(2-chloro-3′,6′-difluoro-2′-isopropyl-4′-((6-(methylsulfonyl)-2,6-diazaspiro[3.3]heptan-2-yl)methyl)-[1,1′-biphenyl]-4-yl)-1,1,1,3,3,3-hexafluoropropan-2-ol]
CS(=O)(=O)N1CC2(CN(Cc3cc(F)c(-c4ccc(C(O)(C(F)(F)F)C(F)(F)F)cc4)c(C4CC4)c3F)C2)C1 [Example 88, 2-(2′-cyclopropyl-3′,6′-difluoro-4′-((6-(methylsulfonyl)-2,6-diazaspiro[3.3]heptan-2-yl)methyl)-[1,1′-biphenyl]-4-yl)-1,1,1,3,3,3-hexafluoropropan-2-ol]
Cc1cc(C(O)(C(F)(F)F)C(F)(F)F)ccc1-c1c(F)cc(CN2CC3(C2)CN(S(C)(=O)=O)C3)c(F)c1C1CC1 [Example 89, 2-(2′-cyclopropyl-3′,6′-difluoro-2-methyl-4′-((6-(methylsulfonyl)-2,6-diazaspiro[3.3]heptan-2-yl)methyl)-[1,1′-biphenyl]-4-yl)-1,1,1,3,3,3-hexafluoropropan-2-ol]
CCc1cc(C(O)(C(F)(F)F)C(F)(F)F)ccc1-c1c(F)cc(CN2CC3(C2)CN(S(C)(=O)=O)C3)c(F)c1C1CC1 [Example 90, 2-(2′-cyclopropyl-2-ethyl-3′,6′-difluoro-4′-((6-(methylsulfonyl)-2,6-diazaspiro[3.3]heptan-2-yl)methyl)-[1,1′-biphenyl]-4-yl)-1,1,1,3,3,3-hexafluoropropan-2-ol]
CS(=O)(=O)N1CC2(CN(Cc3cc(F)c(-c4ccc(C(O)(C(F)(F)F)C(F)(F)F)cc4F)c(C4CC4)c3F)C2)C1 [Example 91, 2-(2′-cyclopropyl-2,3′,6′-trifluoro-4′-((6-(methylsulfonyl)-2,6-diazaspiro[3.3]heptan-2-yl)methyl)-[1,1′-biphenyl]-4-yl)-1,1,1,3,3,3-hexafluoropropan-2-ol]
CS(=O)(=O)N1CC2(CN(Cc3cc(F)c(-c4ccc(C(O)(C(F)(F)F)C(F)(F)F)cc4Cl)c(C4CC4)c3F)C2)C1 [Example 92, 2-(2-chloro-2′-cyclopropyl-3′,6′-difluoro-4′-((6-(methylsulfonyl)-2,6-diazaspiro[3.3]heptan-2-yl)methyl)-[1,1′-biphenyl]-4-yl)-1,1,1,3,3,3-hexafluoropropan-2-ol]
